Our source for the EC50 and IC50 values is ChEMBL document CHEMBL4706758, “Novel Substituted Pyridazines as Splicing Modulators for Modulating Splicing of mRNA and Uses Thereof for Treating Diseases” (ACS Med Chem Lett, 2021).

SMILES strings stand for the structures. pEC50, pIC50: −log10 of the molar value.

Experiment [1] in a line: Modulation of HTT mRNA splicing in human GM04724 cells assessed as mHTT protein potency. The experiment is classed as cell-based.
A short description of experiment [2]: Modulation of HTT mRNA exon 49-50 splicing in human GM04724 cells. The experiment is classed as cell-based.
Experiment [3] can be described thus: Modulation of HTT mRNA exon 49b splicing in human GM04724 cells. In kind it is cell-based.
The target in experiment [4] is SMN2 pre-mRNA. As to the kind of experiment: Modulation of SMN2 mRNA FL splicing in spinal muscular atrophy patient fibroblasts assessed as SMN2 protein potency. In kind it is tissue-based, Homo sapiens. Particulars: fibroblast.
Experiment [5] has as its target SMN2 pre-mRNA. In words: Modulation of SMN2 mRNA FL splicing in spinal muscular atrophy patient fibroblasts. The experiment is classed as tissue-based, Homo sapiens. Particulars: fibroblast.
Experiment [6] deals with SMN2 pre-mRNA. In words: Modulation of SMN2 mRNA D7 splicing in spinal muscular atrophy patient fibroblasts. In kind it is tissue-based, Homo sapiens. Particulars: fibroblast.

The pEC50 is the EC50 on a negative log10 scale, so that one unit is a factor of ten. As a reminder, the pIC50 is −log10 of the IC50, conventionally taken in molar units. Lower therefore signals a high IC50. In the case of `COC[C@@]12CC[C@@H](C[C@H](N(C)c3ccc(-c4cc(F)c(-n5ccnc5)cc4O)nn3)C1)N2`, the pEC50 (in experiment [1]; in experiment [2]; in experiment [3]; at SMN2 pre-mRNA [4]; at SMN2 pre-mRNA [5]) was 11.00 throughout. In addition, at SMN2 pre-mRNA [6], the pIC50 was 11.00.
On to `COC[C@]12CC[C@H](C[C@@H](N(C)c3ccc(-c4cc(F)c(-n5ccnc5)cc4O)nn3)C1)N2`, for which the pEC50 (in experiment [1]; in experiment [2]; in experiment [3]; at SMN2 pre-mRNA [4]; on SMN2 pre-mRNA [5]) was 11.00 each time. At SMN2 pre-mRNA [6], this molecule showed a pIC50 of 11.00.
Turning to `CN(c1ccc(-c2ccc(-c3cnn(C)c3)cc2O)nn1)[C@H]1C[C@@H]2CC[C@@](C)(N2)[C@H]1F`, the negative-log EC50 (pEC50) (in experiment [1]; in experiment [2]; in experiment [3]; at SMN2 pre-mRNA [4]; on SMN2 pre-mRNA [5]) was 11.00 in each case. This molecule had a pIC50 against SMN2 pre-mRNA [6] of 11.00.
For `C[C@@]12CC[C@@H](C[C@H](Oc3ccc(-c4ccc(-n5ccnc5)cc4O)nn3)C1)N2`, the pEC50 in experiment [1] was 11.00; in experiment [2] it was 11.00; in experiment [3], 11.00; on SMN2 pre-mRNA [4], 11.00; at SMN2 pre-mRNA [5], 7.80. At SMN2 pre-mRNA [6], this molecule showed a pIC50 of 7.80.
With `C[C@]12CC[C@H](C[C@@H](Oc3ccc(-c4ccc(-c5cn[nH]c5)cc4O)nn3)C1)N2`, the pEC50 in experiment [1] was 11.00; in experiment [2], 11.00; in experiment [3], 11.00; on SMN2 pre-mRNA [4] it was 11.00; at SMN2 pre-mRNA [5], 7.80. The molecule further gave a pIC50 on SMN2 pre-mRNA [6] of 11.00.
As for `C[C@@]12CC[C@@H](C[C@H](Oc3ccc(-c4ccc(-c5cn[nH]c5)cc4O)nn3)C1)N2`, the pEC50 (in experiment [1]; in experiment [2]; in experiment [3]; on SMN2 pre-mRNA [4]; at SMN2 pre-mRNA [5]) was 11.00 each time. At SMN2 pre-mRNA [6], the pIC50 was 11.00.
